Data taken from patent publication US20220125876A1, “A METHOD OF IMMUNE MODULATION BY MODULATING ABCF1” (Pacific Myco Biosciences, Ltd., priority 2019, published 2022).
“Also recorded” adds a separate entry of the source.

Legend:
[1] = system: bone marrow derived macrophages (BMDM); assay: Immunoblotting of BMDM lysates for protein expression and phosphorylation; type: cell-based, mouse
Protocol: (§1) Western blotting: Cell lysates were prepared as described above. All co-immunoprecipitation samples were prepared without DTT in the sample buffer, unless otherwise mentioned. All other western blot samples were prepared with DTT in the sample buffer. Lysates were electrophoresed and immunoblotted with indicated antibodies.
Cytoplasmic and Nuclear fractionation: Bone marrow macrophages were stimulated with mentioned treatments and cytoplasmic and nuclear fractionation was performed with NE-PER Nuclear and Cytoplasmic Extraction Reagents (Thermo Scientific; 78833) according to manufacturer's instructions.
as §1, with “Cell” for “Western blotting: Cell”
Bone marrow macrophages were stimulated with indicated treatments and cytoplasmic and nuclear fractionation was performed with NE-PER Nuclear and Cytoplasmic Extraction Reagents (Thermo Scientific; 78833) according to manufacturer's instructions.

ABCF1 [2] = assay: Polyubiquitination state of ABCF1 in BMDM (immunoprecipitation with anti-ABCF1, immunoblot with anti-polyubiquitin antibodies); type: cell-based, mouse
ABCF1 [3] = conditions: cited from earlier work
ubiquitin = target: T1, ubiquitin (Homo sapiens, UniProt P0CG48); assay: In vitro ubiquitination assay; type: biochemical, mouse; conditions: with UBA1 (E1), Mg2+ and ATP, DTT sensitive
T1 construct: recombinant ABCF1, UBA1, and Ub proteins were incubated in the presence of cofactors; purchased abcam ab139467; host or cells: ubiquitin and E1 from the kit; ABCF1 immunoprecipitated from transfected mouse BMDM
Protocol: In vitro ubiquitination Assay: Abcf1WT and Abcf1C647S expression plasmids were overexpressed in macrophages as described above. Before overexpressing Abcf1C647S expression plasmid, cells were treated with Abcf1 siRNA, as described above to eliminate endogenous Abcf1 levels. Abcf1 siRNA treated cells were washed with cold PBS twice and then Abcf1C647S expression plasmid was overexpressed. Cell lysates were prepared and subjected to co-immunoprecipitation with anti ABCF1 antibody. Extend of overexpression and co-immunoprecipitation was checked by western blot. Ubiquitination Assay was performed on immunoprecipitated samples with Ubiquitylation Assay Kit (abcam; ab139467) according to manufacturer's instructions. Samples were run on a gel and blotted with anti ABCF1 and anti UB antibodies.
To confirm the finding, enzyme activity of ABCF1 was investigated in presence and absence of cofactor Mg^2+ and ATP via an in vitro ubiquitination assay. […] As thio-ester bonds mediate ubiquitin attachment to the E2 enzyme and are DTT sensitive, no such protein band was observed when samples were treated with DTT.
To confirm if the conserved cysteine at position 647 in the ABCF1 sequence is the catalytic cysteine that mediates the E2 function, in vitro ubiquitination assay was performed with Abcf1 WT and Abcf1 C647S (where the cysteine was mutated to a serine) protein constructs. […]

[4] = induction of hypoxia, CoCl2 100 μM for 24 hours
[5] = LPS (100 ng/ml) 30 min, SM 100 nM, Dynasore 80 μM
[6] = BMDMs treated with recombinant cytokine for 24 hours (TNFα 10 ng/ml, IL-1β 10 ng/ml, IL-10 50 ng/ml, IFNβ 10,000 IU/50 μl)

Molecule: [Cl][Co][Cl] [CoCl2, Cobalt Chloride]
- ABCF1 expression [1, 4]: decreased
- HIF-1α expression [1, 4]: increased

Molecule: O=C(N/N=C/c1ccc(O)c(O)c1)c1cc2ccccc2cc1O [Dynasore]
- polyubiquitin linkage of ABCF1 (ABCF1 [2]; Dynasore treatment alone): led to K48-polyubiquitination
- K48-polyubiquitination of ABCF1 (ABCF1 [2]; [5]): targeted for K48-polyubiquitination; also recorded: extensively upregulated
- K63-polyubiquitination of ABCF1 (ABCF1 [2]; [5]): no K63-polyubiquitination was observed; also recorded: greatly reduced

Molecule: CN(C)CCC[C@@]1(c2ccc(F)cc2)OCc2cc(C#N)ccc21 [Escitalopram]
- effect on ABCF1 pathway (ABCF1 [3]): known enhancer of the ABCF1 pathway

Molecule: CN[C@@H](C)C(=O)N[C@H](C(=O)N1CCC[C@H]1Cn1nnnc1Sc1ccccc1)C(C)OCC#CC#CCO[C@H](C)[C@H](NC(=O)[C@H](C)NC)C(=O)N1CCCC1Cn1nnnc1Sc1ccccc1 (stereo partly shown) [SM]
- K63-polyubiquitination of ABCF1 (ABCF1 [2]; [5]): increased
- polyubiquitin linkage of ABCF1 (ABCF1 [2]; LPS treatment for 10 minutes): K63-polyubiquitination of ABCF1 instead

Molecule: TNFα
- ABCF1 expression [1, 6]: decreased

Molecule: recombinant ABCF1: recombinant ABCF1 protein used in the in vitro ubiquitination assay
- mass / apparent molecular weight shift of ABCF1 (Ub thioester attachment) (ubiquitin): increase in mass size; also recorded: increase in the apparent molecular weight

B1: IFNβ: recombinant IFNβ (10,000 IU/50 μl) used to treat BMDMs (protein, UniProt P01575 22-182, looked up)
Interferon beta: INYKQLQLQERTNIRKCQELLEQLNGKINLTYRADFKIPMEMTEKMQKSYTAFAIQEMLQNVFLVFRNNFSSTGWNETIVVRLLDELHQQTVFLKTVLEEKQEERLTWEMSSTALHLKSYYWRVQRYLKLMKYNSYAWMVVRAEIFRNFLIIRRLTRNFQN
- ABCF1 expression [1, 6]: increased

B2: IL-1β: recombinant IL-1β (10 ng/ml) used to treat BMDMs (protein, UniProt P10749 118-269, looked up)
Interleukin-1 beta: VPIRQLHYRLRDEQQKSLVLSDPYELKALHLNGQNINQQVIFSMSFVQGEPSNDKIPVALGLKGKNLYLSCVMKDGTPTLQLESVDPKQYPKKKMEKRFVFNKIEVKSKVEFESAEFPNWYISTSQAEHKPVFLGNNSGQDIIDFTMESVSS
- ABCF1 expression [1, 6]: decreased

B3: IL-10: recombinant IL-10 (50 ng/ml) used to treat BMDMs (protein, UniProt P18893 19-178, looked up)
Interleukin-10: SRGQYSREDNNCTHFPVGQSHMLLELRTAFSQVKTFFQTKDQLDNILLTDSLMQDFKGYLGCQALSEMIQFYLVEVMPQAEKHGPEIKEHLNSLGEKLKTLRMRLRRCHRFLPCENKSKAVEQVKSDFNKLQDQGVYKAMNEFDIFINCIEAYMMIKMKS
- ABCF1 expression [1, 6]: increased
